Assays:
[1] = target: T1, Aromatase (Homo sapiens, UniProt P11511); type: microsomes, Placenta, Microsome
T1 sequence (P11511 whole entry): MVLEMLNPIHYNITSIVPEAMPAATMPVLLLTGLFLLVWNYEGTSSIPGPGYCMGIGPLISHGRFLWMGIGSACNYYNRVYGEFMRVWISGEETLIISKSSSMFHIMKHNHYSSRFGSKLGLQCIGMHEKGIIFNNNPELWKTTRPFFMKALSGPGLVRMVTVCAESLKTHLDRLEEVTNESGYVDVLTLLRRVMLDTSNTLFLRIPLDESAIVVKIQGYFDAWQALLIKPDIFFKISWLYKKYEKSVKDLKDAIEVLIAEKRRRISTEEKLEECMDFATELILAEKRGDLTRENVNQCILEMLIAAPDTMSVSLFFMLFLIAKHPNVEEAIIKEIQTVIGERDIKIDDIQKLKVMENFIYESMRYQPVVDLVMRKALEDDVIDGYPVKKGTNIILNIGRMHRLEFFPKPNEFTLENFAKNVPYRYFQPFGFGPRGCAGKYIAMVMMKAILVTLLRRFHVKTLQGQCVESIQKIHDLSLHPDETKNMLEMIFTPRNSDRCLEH

[2] = target: T2, Steryl-sulfatase (Homo sapiens, UniProt P08842)
T2 sequence (P08842 whole entry): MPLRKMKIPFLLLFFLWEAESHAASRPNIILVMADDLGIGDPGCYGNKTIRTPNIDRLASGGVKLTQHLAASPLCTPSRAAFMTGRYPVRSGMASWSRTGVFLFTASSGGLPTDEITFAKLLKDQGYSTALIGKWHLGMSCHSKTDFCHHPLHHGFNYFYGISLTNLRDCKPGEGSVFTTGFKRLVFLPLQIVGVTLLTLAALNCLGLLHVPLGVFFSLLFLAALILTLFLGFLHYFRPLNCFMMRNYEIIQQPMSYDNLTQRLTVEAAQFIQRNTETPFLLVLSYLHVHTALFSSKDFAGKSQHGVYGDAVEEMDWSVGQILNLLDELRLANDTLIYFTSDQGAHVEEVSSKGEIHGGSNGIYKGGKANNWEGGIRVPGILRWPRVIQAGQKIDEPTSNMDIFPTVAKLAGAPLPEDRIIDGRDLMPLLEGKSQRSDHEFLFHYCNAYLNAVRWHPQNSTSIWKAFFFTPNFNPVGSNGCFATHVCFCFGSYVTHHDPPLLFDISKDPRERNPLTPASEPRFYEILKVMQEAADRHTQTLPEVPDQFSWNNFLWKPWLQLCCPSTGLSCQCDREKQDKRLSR

[3] = target: T2, Steryl-sulfatase; remark: listed apart in the source
[4] = target: T1, Aromatase; type: microsomes, Placenta, Microsome; remark: listed apart in the source
[5] = target: T1, Aromatase
[6] = target: T2, Steryl-sulfatase; type: microsomes, Placenta, Microsome
[7] = target: T2, Steryl-sulfatase; type: cell-based, HEK293
[8] = target: T2, Steryl-sulfatase; type: cell-based, HEK293; remark: listed apart in the source
[9] = target: T3, Estrogen receptor (Homo sapiens, UniProt P03372)
T3 sequence (P03372 whole entry): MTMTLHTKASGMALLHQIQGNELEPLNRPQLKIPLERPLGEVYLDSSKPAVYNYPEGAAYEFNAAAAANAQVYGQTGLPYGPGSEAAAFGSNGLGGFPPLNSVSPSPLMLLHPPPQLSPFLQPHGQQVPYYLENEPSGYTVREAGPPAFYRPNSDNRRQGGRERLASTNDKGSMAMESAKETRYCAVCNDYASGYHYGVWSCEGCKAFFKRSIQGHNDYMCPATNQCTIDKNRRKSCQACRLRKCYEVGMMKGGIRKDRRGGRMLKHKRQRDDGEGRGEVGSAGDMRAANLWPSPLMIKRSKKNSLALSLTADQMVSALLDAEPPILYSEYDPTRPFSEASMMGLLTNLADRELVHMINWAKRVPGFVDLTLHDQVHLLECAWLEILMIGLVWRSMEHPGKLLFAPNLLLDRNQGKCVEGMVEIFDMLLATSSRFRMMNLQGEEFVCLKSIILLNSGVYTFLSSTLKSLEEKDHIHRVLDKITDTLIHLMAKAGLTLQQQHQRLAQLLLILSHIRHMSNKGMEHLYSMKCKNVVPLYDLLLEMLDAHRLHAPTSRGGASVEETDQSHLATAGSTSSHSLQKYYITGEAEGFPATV

[10] = target: T2, Steryl-sulfatase; remark: listed apart in the source
[11] = target: T3, Estrogen receptor; type: cell-based, MCF7
[12] = test system: MCF7; experiment: cells; type: functional, cell-based; settings: Homo sapiens, MCF7, 72 h
[13] = target: T3, Estrogen receptor; remark: listed apart in the source
[14] = target: Estrogen receptor beta (Homo sapiens, UniProt Q92731); type: cell-based, MCF7
[15] = target: T3, Estrogen receptor; remark: listed apart in the source
[16] = target: Receptor tyrosine-protein kinase erbB-2 (Homo sapiens, UniProt P04626)
[17] = target: RAF proto-oncogene serine/threonine-protein kinase (Homo sapiens, UniProt P04049); type: cell-based, MCF7
RAF proto-oncogene serine/threonine-protein kinase, sequence (P04049 whole entry): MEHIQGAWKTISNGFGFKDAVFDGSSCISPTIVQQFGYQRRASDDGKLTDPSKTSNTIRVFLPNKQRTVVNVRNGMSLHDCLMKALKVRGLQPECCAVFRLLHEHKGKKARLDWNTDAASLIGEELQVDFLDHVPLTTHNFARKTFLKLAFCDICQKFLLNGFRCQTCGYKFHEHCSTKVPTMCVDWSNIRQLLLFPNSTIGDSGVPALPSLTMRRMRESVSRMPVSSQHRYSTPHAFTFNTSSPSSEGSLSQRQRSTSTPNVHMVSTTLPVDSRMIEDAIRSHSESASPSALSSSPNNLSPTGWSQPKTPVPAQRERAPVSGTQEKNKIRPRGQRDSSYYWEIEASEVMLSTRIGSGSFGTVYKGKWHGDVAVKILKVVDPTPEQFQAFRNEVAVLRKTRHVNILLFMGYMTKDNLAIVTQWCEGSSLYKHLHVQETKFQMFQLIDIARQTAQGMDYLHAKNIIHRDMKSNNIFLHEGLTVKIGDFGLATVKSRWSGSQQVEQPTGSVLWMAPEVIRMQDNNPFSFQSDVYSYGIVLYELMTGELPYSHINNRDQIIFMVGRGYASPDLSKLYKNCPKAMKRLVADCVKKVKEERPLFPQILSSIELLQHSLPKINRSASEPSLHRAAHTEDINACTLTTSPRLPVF

Estrogen receptor beta, sequence (Q92731 whole entry): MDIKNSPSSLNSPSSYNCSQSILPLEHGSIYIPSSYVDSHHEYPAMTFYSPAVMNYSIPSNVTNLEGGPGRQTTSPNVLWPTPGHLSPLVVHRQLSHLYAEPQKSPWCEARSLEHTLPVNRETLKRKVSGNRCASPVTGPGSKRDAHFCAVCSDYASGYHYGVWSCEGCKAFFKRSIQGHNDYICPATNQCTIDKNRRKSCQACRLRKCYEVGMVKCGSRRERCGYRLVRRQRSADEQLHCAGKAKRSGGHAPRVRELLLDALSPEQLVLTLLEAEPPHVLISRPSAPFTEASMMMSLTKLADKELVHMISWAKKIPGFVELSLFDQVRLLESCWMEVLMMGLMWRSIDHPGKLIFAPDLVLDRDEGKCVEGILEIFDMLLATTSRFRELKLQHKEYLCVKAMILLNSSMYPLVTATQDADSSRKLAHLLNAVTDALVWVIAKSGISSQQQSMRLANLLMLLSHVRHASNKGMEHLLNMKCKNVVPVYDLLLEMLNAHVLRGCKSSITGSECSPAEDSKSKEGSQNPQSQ
Receptor tyrosine-protein kinase erbB-2, sequence (P04626 whole entry): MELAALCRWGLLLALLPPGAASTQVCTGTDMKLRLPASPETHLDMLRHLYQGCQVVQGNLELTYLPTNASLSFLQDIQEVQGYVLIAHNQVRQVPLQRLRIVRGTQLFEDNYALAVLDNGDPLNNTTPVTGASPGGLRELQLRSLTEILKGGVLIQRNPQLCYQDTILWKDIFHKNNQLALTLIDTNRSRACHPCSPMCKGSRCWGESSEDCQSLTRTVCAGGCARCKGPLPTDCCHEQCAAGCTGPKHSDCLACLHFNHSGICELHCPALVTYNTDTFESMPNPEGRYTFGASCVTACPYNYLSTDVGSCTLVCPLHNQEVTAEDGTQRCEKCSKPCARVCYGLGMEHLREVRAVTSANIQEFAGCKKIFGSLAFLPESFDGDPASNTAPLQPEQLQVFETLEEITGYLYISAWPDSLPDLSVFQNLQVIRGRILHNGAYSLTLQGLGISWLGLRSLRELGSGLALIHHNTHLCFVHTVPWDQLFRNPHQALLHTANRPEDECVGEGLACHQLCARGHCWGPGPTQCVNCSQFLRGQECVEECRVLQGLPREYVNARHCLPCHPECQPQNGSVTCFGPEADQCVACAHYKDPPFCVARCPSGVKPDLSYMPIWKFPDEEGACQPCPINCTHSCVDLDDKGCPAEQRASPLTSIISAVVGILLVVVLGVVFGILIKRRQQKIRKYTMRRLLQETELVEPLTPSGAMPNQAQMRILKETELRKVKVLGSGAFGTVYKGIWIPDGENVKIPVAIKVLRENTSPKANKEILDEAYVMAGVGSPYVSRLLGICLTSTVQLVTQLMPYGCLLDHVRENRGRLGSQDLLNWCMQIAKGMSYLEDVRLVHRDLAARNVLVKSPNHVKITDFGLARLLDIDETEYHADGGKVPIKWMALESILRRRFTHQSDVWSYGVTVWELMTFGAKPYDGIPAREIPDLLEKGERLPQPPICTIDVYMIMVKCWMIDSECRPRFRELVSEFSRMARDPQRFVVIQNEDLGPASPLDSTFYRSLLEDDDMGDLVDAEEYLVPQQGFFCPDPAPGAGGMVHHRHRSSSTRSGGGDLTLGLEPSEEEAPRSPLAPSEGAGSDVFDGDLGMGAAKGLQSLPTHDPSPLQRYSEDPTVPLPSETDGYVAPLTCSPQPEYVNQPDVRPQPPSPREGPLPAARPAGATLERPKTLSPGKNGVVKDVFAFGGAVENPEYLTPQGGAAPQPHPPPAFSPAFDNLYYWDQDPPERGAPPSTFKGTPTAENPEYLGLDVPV

N#Cc1ccc(N(Cc2ccc(Br)cc2)n2cnnc2)cc1
IC50 [1]: 0.4 nM

CC(C)(C)c1cc(=O)c2cc(OS(N)(=O)=O)ccc2o1
IC50 [2]: 0.047 nM

CCCCCCCCCc1cc(=O)c2cc(OS(N)(=O)=O)ccc2o1
IC50 [2]: 0.089 nM

C[C@]12CC[C@@H]3c4ccc(C(F)(F)S(N)(=O)=O)cc4CC[C@H]3[C@@H]1CCC2=O
Ki [3]: 28000 to 82000 nM

COc1ccc2c(c1)C(N)=C(Cc1ccncc1)C2=O
IC50 [4]: 100 nM

CC/C(=C(\c1ccc(OCCN(C)C)cc1)c1ccc(OS(N)(=O)=O)cc1)c1ccccc1
Ki [3]: > 500000 nM

CC/C(=C(/c1ccc(OCCN(C)C)cc1)c1ccc(OS(N)(=O)=O)cc1)c1ccccc1
Ki [3]: 35900 nM

N#Cc1ccc2sc(C34CC5CC(CC(C5)C3)C4)cc(=O)c2c1
IC50 [3]: 180 nM

C[C@]12CCC(=O)C=C1C=C(CCc1ccccc1)[C@@H]1[C@@H]2CC[C@]2(C)C(=O)CC[C@@H]12
Ki [5]: 174 nM

CCCCCCCCCCCCCC(=O)NCc1ccc(OS(N)(=O)=O)cc1
IC50 [6]: 72 nM

CC(C)(C)c1ccc(C[C@]2(O)CC[C@H]3[C@@H]4CC=C5C[C@@H](OS(N)(=O)=O)CC[C@]5(C)[C@H]4CC[C@@]32C)cc1
IC50 [7]: 14 nM
IC50 [8]: 46 nM

CC(C)(C#N)c1cc(CSc2ccc(OS(N)(=O)=O)cc2)cc(Cn2cncn2)c1
IC50 [9]: 3.5 nM

COc1c2c(c(O)c3c1C(=O)c1cc(C)c(O)cc1C3=O)-c1c(cc(/C=N/NC(=S)NC3CCCCC3)c(C(=O)O)c1O)CC2
IC50 [10]: 460 nM
Ki [10]: 350 nM

C/C=C1/[C@H](O)C[C@H]2[C@@H]3CCc4cc(OC)ccc4[C@H]3CC[C@]12C
IC50 [11]: 5490 nM

N#Cc1ccc(N(Cc2ccc(OS(N)(=O)=O)cc2F)n2cnnc2)cc1
IC50 [3]: 2.5 nM

C[C@]12CC[C@@H]3c4ccc(NC(=O)C(F)(F)F)cc4CC[C@H]3[C@@H]1CCC2=O
IC50 [3]: 8700 nM

O=[N+]([O-])c1ccc(N(Cc2ccc(Br)cc2)n2cnnc2)cc1
IC50 [1]: 0.12 nM

CCCCCCCCCCCCC(=O)NCCc1ccc(OS(N)(=O)=O)cc1
IC50 [3]: 55.8 nM

CC(O)[C@@]12C[C@@H]1C[C@H]1[C@@H]3CCc4cc(O)ccc4[C@H]3CC[C@]12C (some centres undefined)
IC50 [12]: 3000 nM

Oc1ccc2c(c1)O[C@@H](c1ccccc1)C[C@@H]2n1ccnc1
IC50 [5]: 41 nM

CC/C(=C(\c1ccc(O)cc1)c1ccc(OCCNCCCCCCNC(=O)CCC2=[N+]3C(=CC4=CC=C(C)C4[B-]3(F)F)C=C2)cc1)c1ccccc1 (centres undefined)
IC50 [13]: 30 nM

O=c1oc2cc(OP(=O)(O)O)ccc2c2c1CCCC2
IC50 [3]: 37800 nM

O=c1cc(-c2ccccc2)nc2ccc(-c3ccccc3O)cn12
IC50 [9]: 250000 nM

Cc1c(-c2ccc(O)cc2)nn(-c2ccc(O)cc2)c1-c1ccc(OCCN2CCCCC2)cc1
Ki [14]: 1800 nM

CO[C@H]1/C=C\C=C(/C)C(=O)NC2=CC(=O)C(NC/C=C/C[C@@H]3C[C@H]4[C@@H]5CCc6cc(O)ccc6[C@H]5CC[C@]4(C)[C@H]3O)=C(C[C@@H](C)C[C@H](OC)[C@H](O)[C@@H](C)/C=C(\C)[C@@H]1OC(N)=O)C2=O (stereo in doubt)
IC50 [15]: 80 nM
IC50 [16]: 100 nM
IC50 [17]: 1500 nM
